Source: patent publication US20210078917A1, “FUNGICIDAL FERTILIZER COMPOSITION COMPRISING POTASSIUM PHOSPHITE AND GAMMA-POLY-GLUTAMIC ACID” (JIANGSU HUIFENG BIO AGRICULTURE CO., LTD., priority 2018, published 2021)

How the values were obtained:
[1] = tested on: stem rot of peanut; experiment: Disease control test of peanut, stem rot; type: in vivo
Method: (§1) […]. Fertilization method: The fertilizer was applied three times by spraying during the flowering and fruiting period. The yield, quality and control effect on disease on peanut were determined.

[2] = tested on: tomato; experiment: Yield increase and quality test of tomato; type: in vivo; conditions: 60 g active ingredient per mu
Method: […]. This fertilizer was applied on the basis of conventional fertilization in each treatment area. Fertilization method: The fertilizer was applied by spraying during the seedling stage of tomato. The yield, quality and control effect on disease on tomato were determined.

[3] = tested on: Disease (black fruit); experiment: Disease control test of Chinese wolfberry, black fruit; type: in vivo, Chinese wolfberry "Ningqi No. 7"
Method: The test was carried out in a Chinese wolfberry planting test plot in Koluke Town, Delingha City, Qinghai Province. Chinese wolfberry plants were all three-year-old seedlings of variety “Ningqi No. 7” at a density of 270 plants/667 m^2. This experiment was designed such that different plots were arranged in order. […] Fertilization method: It was applied together with other base fertilizers, by laying the fertilizer at the bottom of the planting pit, where the depth of the trench was 70 cm, the diameter of the pit was 80 cm, and the soil was mixed in and applied at the bottom when applying fertilizer. The yield, quality and control effect on disease on fresh Chinese wolfberry fruit were determined.

[4] = tested on: Disease (rot); experiment: Disease control test of tomato, rot; type: in vivo; conditions: 60 g active ingredient per mu
Method: This fertilizer was applied on the basis of conventional fertilization in each treatment area. Fertilization method: The fertilizer was applied by spraying during the seedling stage of tomato. The yield, quality and control effect on disease on tomato were determined.

[5] = tested on: root rot, a soil-borne disease of soybeans; experiment: Disease control test of soybean, root rot; type: in vivo
Method: Fertilization method: The fertilizer was co-applied with other fertilizers. The yield, quality and control effect on disease on soybean were determined.

[6] = tested on: root rot of potatoes; experiment: Disease control test of potatoes (field), root rot; type: in vivo, potato
Method: (§2) (1) Yield increase and disease control test of potatoes with fungicidal fertilizer composition of the present invention. This test was conducted in 2017 in Anding District, Dingxi City, Gansu Province. This area is a typical semi-arid rain-fed agricultural area. The soil type is loessial soil, with deep soil layers and uniform soil fertility. The previous crop is rape. The fertilizer of the present invention was totally applied as a base fertilizer at a time. […] Ridging after flat planting in wide and narrow rows was adopted. The wide row spacing was 60 cm, the narrow row spacing was 30 cm, the plant spacing was 30 cm, the sowing depth was 15 cm, and the plant density was 58,000 plants·hm^−2. Other field management was the same as that in large area of field. The number of large- and medium-sized potatoes ([…]) per plant was randomly determined, and the relative increase rate of large- and medium-sized potatoes was determined. The yield per mu and the relative increase rate of yield were determined. The crude starch content and increase rate of crude starch content were determined. The control effect on root rot of potatoes was also determined.

[7] = tested on: Chinese wolfberry; experiment: Yield increase and quality test of Chinese wolfberry; type: in vivo, Chinese wolfberry "Ningqi No. 7"
Method: The test was carried out in a Chinese wolfberry planting test plot in Koluke Town, Delingha City, Qinghai Province. Chinese wolfberry plants were all three-year-old seedlings of variety “Ningqi No. 7” at a density of 270 plants/667 m^2. This experiment was designed such that different plots were arranged in order. […]. Fertilization method: It was applied together with other base fertilizers, by laying the fertilizer at the bottom of the planting pit, where the depth of the trench was 70 cm, the diameter of the pit was 80 cm, and the soil was mixed in and applied at the bottom when applying fertilizer. The yield, quality and control effect on disease on fresh Chinese wolfberry fruit were determined.

[8] = tested on: potatoes; experiment: Yield increase test of potatoes (field); type: in vivo, potato
Method: as §2

[9] = tested on: pepper; experiment: Yield increase and quality test of pepper; type: in vivo; conditions: 40 g active ingredient per mu
Method: (§3) This fertilizer was applied on the basis of conventional fertilization in each treatment area. Fertilization method: The fertilizer was applied by spraying during the seedling stage of pepper. The yield, quality and control effect on disease on pepper were determined.

[10] = tested on: peanut; experiment: Yield increase and quality test of peanut; type: in vivo
Method: as §1

[11] = tested on: Disease (blight); experiment: Disease control test of pepper, blight; type: in vivo; conditions: 40 g active ingredient per mu
Method: as §3

[12] = amount 50 g active ingredient/mu
[13] = amount 100 g active ingredient/mu
[14] = amount 400 g active ingredient/mu

Substance: γ-poly-glutamic acid
- Disease (Stem rot): Control effect ([1]; 30 g/mu, 10 days after application): 20.41%
- Disease (Stem rot): Control effect ([1]; 30 g/mu, 30 days after application): 6.21%
- Disease (Stem rot): Control effect ([1]; 60 g/mu, 10 days after application): 31.29%
- Disease (Stem rot): Control effect ([1]; 60 g/mu, 30 days after application): 11.58%
- Quality: Amino acid [2]: 610.17 mg/100 kg
- Quality: Vitamin C [2]: 17.32 mg/100 g
- Yield: Total yield [2]: 3519 kg/mu
- Yield: Weight of single fruit [2]: 21.7 g
- Disease (black fruit): Control effect ([3]; 50 g/mu, 10 days after application): 17.56%
- Disease (black fruit): Control effect ([3]; 50 g/mu, 30 days after application): 10.99%
- Disease (black fruit): Control effect ([3]; 100 g/mu, 10 days after application): 29.17%
- Disease (black fruit): Control effect ([3]; 100 g/mu, 30 days after application): 21.35%
- Disease (rot): Control effect ([4]; 12 days after application): 21.35%
- Disease (rot): Control effect ([4]; 45 days after application): 7.26%
- Control effect ([5]; 15 g/mu, 12 days after application): 9.70%
- Control effect ([5]; 15 g/mu, 35 days after application): 4.22%
- Control effect ([5]; 50 g/mu, 12 days after application): 14.20%
- Control effect ([5]; 50 g/mu, 35 days after application): 7.86%
- Control effect ([5]; 100 g/mu, 12 days after application): 20.13%
- Control effect ([5]; 100 g/mu, 35 days after application): 10.67%
- Control effect ([5]; 300 g/mu, 12 days after application): 22.71%
- Control effect ([5]; 300 g/mu, 35 days after application): 15.76%
- Control effect ([5]; 600 g/mu, 12 days after application): 27.52%
- Control effect ([5]; 600 g/mu, 35 days after application): 18.89%
- Control effect ([6]; amount 50 g active ingredient/mu, 10 days after application): 9.87%
- Control effect ([6]; amount 50 g active ingredient/mu, 30 days after application): 4.34%
- Control effect ([6]; amount 100 g active ingredient/mu, 10 days after application): 17.34%
- Control effect ([6]; amount 100 g active ingredient/mu, 30 days after application): 14.47%
- Control effect ([6]; amount 400 g active ingredient/mu, 10 days after application): 32.51%
- Control effect ([6]; amount 400 g active ingredient/mu, 30 days after application): 25.37%
- Quality: Polysaccharide ([7]; 50 g/mu): 8.79%
- Quality: Total amino acid content ([7]; 50 g/mu): 7.53%
- Yield of fresh Chinese wolfberry fruit: Weight per 100 fruits ([7]; 50 g/mu): 117.5 g
- Yield of fresh Chinese wolfberry fruit: Yield ([7]; 50 g/mu): 2524.5 kg/mu
- Quality: Polysaccharide ([7]; 100 g/mu): 9.54%
- Quality: Total amino acid content ([7]; 100 g/mu): 7.68%
- Yield of fresh Chinese wolfberry fruit: Weight per 100 fruits ([7]; 100 g/mu): 124.7 g
- Yield of fresh Chinese wolfberry fruit: Yield ([7]; 100 g/mu): 2658.6 kg/mu
- Crude starch content [8, 12]: 16.1%
- Fresh weight of large- and medium-sized potatoes [8, 12]: 481.3 g/plant
- Increase rate of crude starch content [8, 12]: 1.9%
- Increase rate of large- and medium-sized potatoes [8, 12]: 6.5%
- Increase rate of yield [8, 12]: 4.4%
- Yield [8, 12]: 1343 kg/mu
- Crude starch content [8, 13]: 16.4%
- Fresh weight of large- and medium-sized potatoes [8, 13]: 492.6 g/plant
- Increase rate of crude starch content [8, 13]: 3.8%
- Increase rate of large- and medium-sized potatoes [8, 13]: 9.0%
- Increase rate of yield [8, 13]: 7.5%
- Yield [8, 13]: 1383 kg/mu
- Crude starch content [8, 14]: 17.1%
- Fresh weight of large- and medium-sized potatoes [8, 14]: 499.3 g/plant
- Increase rate of crude starch content [8, 14]: 8.2%
- Increase rate of large- and medium-sized potatoes [8, 14]: 10.5%
- Increase rate of yield [8, 14]: 10.6%
- Yield [8, 14]: 1422 kg/mu
- Quality: Vitamin C [9]: 26.8 mg/100 g
- Yield: Total yield [9]: 3382 kg/mu
- Yield: Weight of single fruit [9]: 49.2 g
- Quality: Linoleic acid ([10]; 30 g/mu): 44.52%
- Quality: Protein ([10]; 30 g/mu): 22.91%
- Yield ([10]; 30 g/mu): 285.3 kg/mu
- Yield: Seed yield ([10]; 30 g/mu): 66.7%
- Yield: Weight per 100 fruits ([10]; 30 g/mu): 113.4 g
- Quality: Linoleic acid ([10]; 60 g/mu): 45.36%
- Quality: Protein ([10]; 60 g/mu): 24.31%
- Yield ([10]; 60 g/mu): 310.8 kg/mu
- Yield: Seed yield ([10]; 60 g/mu): 69.1%
- Yield: Weight per 100 fruits ([10]; 60 g/mu): 126.7 g
- Disease (blight): Control effect ([11]; 10 days after application): 26.27%
- Disease (blight): Control effect ([11]; 42 days after application): 10.26%
